Experiments:
[1] = test system: wild-type (WT) rats; assay: Reduction of blood C26:0 LPC in vivo in wild-type rats; parameters: species or system rat; settings: blood (DBS)
Protocol: A LC-MS/MS method of analyzing Lysophosphatidylcholine (LPC) in whole blood (dried blood spot card, DBS) and brain tissue samples was developed for measuring the abundance of saturated C16, C18, C20, C22, C24 and C26 LPC in DBS and brain samples. Whole blood was collected with Whatman DMPK-C DBS card at an approximate volume of 20 μL at each time point. Brain tissue was collected at the end point of the study. Samples were prepared and LC-MS/MS analysis was performed as described below.
For DBS bioanalysis, the DBS card was punched at 3 mm in diameter using a semi-automated DBS card puncher. To each punched spot 200 μL of pure methanol was added. The vial was vortexed at low speed for 20 minutes and centrifuged at 4000 rpm for 20 minutes. The clear supernatant was injected onto LC-MS/MS for analysis. For brain tissue bioanalysis, brain tissue was collected in a tared homogenization tube pre-filled with metal bead and weighted. To each sample vial two parts weight of methanol was added. The sample was homogenized using Precellys-24 at 5000 rpm for 20 seconds with one cycle. A 100 mg aliquot of homogenate was used for analysis. To each sample vial 400 μL of pure methanol was added. The vial was vortexed at low speed for 20 minutes and centrifuged at 4000 rpm for 20 minutes. […]
The supernatant obtained from each sample was injected into a LC-MS/MS system (Agilent Technologies, Santa Clara, Calif. and Applied Biosystems, Framingham, Mass.) for analysis. […] LPCs were detected by an AB Sciex API-6500 triple quadrupole MS with electrospray ionization in the mode of multiple reaction monitoring. Ions of Q1 were monitored at m/z of 496.6, 524.6, 552.6, 580.6, 608.6 and 636.6 for LPC 16:0, LPC 18:0, LPC 20:0, LPC 22:0, LPC 24:0 and LPC 26:0, respectively. […] C16:0 LPC levels were expressed as a concentration. […]
Compound 87 was dosed PO (orally by oral gavage) QD at 30, 100, and 300 mg/kg in wild-type (WT) rats (n=5) for 7 days (FIG. 2C). […] DBS cards were stored at 4° C. until they could be analyzed for LPC. DBS samples were prepared and analyzed using LC-MS/MS as described above.

[2] = test system: ALD patient B-lymphocytes; assay: Reduction in C26:0 LPC in ALD patient B-lymphocytes in vitro; assay type: cell-based; settings: Homo sapiens, Lymphocyte, half maximal reduction in C26:0 LPC
Protocol: Lysophosphatidylcholine (LPC) VLCFA were generated from straight chain VLCFA (SC-VLCFA) and were used clinically for newborn screening (Vogel et al., Mol. Genet. Metab. (2015) 114(4):599-603). In vitro efficacy studies were performed by measuring LPC VLCFA level (measured as LPC synthesis) in various cell lines, specifically in 1) human HEK cells, 2) patient derived cells, and 3) human microglia, which are disease relevant CNS cells. Compound 87's dose response relationships and IC50 values were measured in HEK cells, primary patient fibroblasts, immortalized patient lymphocytes, and a human microglial cell line. To measure LPC VLCFA synthesis, the foregoing cells were grown in the presence of ^13C labeled acetate (13C Labeled sodium acetate; Sigma Aldrich #282014) and Compound 87 (prepared in DMSO) for about 48 hours. Primary patient fibroblasts and immortalized primary patient lymphocytes were acquired from the Coriell Cell Repository at the Coriell Institute for Medical Research.
Immortalized primary patient lymphocytes cell lines (cell lines GM13496, GM13497, and GM04674) were obtained from the Coriell Cell Repository at the Coriell Institute for Medical Research. Lymphocytes were cultured and plated at a desired cell density, such as 1×10^5 cells/well. […] The plate was sealed with a plate tape and put at −80° C. for further VLCFA extraction and VLCFA quantitation on LC-MS, as described below.
VLCFA Extraction and Quantitation on LCMS:
Treated cells were transferred to a polypropylene v-bottom plate and then centrifuged at 1690×g for 10 minutes. […] The plates were then sealed with pierceable capmats (Micronic MP53017) and stored at −20° C. until further analyzed using UPHLC/Mass Spectrometry Readout, as described above in example 2.1, which measured the integration of ^13C into lysophosphatidylcholine (LPC) indicated fatty acid elongation. Specifically, C16:0, C18:0, C20:0, C22:0, C24:0, and C26:0 LPC levels were measured via mass spectroscopy as described above and IC50 values indicated half maximal reduction in C26:0 LPC levels.

In the case of `O=C(Nc1ccn(-c2ccnc(F)c2)n1)C1(c2ccccc2F)CC1` [Compound 87, 1-(2-fluorophenyl)-N-[1-(2-fluoro-4-pyridyl)pyrazol-3-yl]cyclopropanecarboxamide], the “reduction in C26:0 LPC levels compared to vehicle controls” value (shortened to “reduction in C26:0 LPC levels”) ([1]; 30 mg/kg PO QD for 7 days) is reported as ~65%, the “reduction in C26:0 LPC levels” value ([1]; 100 mg/kg PO QD for 7 days) is reported as “about 75%” and the “reduction in C26:0 LPC levels” value ([1]; 300 mg/kg PO QD for 7 days) is reported as “about 85%”. For the same molecule, the IC50 ([2]; Patient Lymphocyte (CALD)) was 15 nM, the IC50 ([2]; Patient Lymphocyte (Het 1)) was 5 nM and the IC50 ([2]; Patient Lymphocyte (Het 2)) was 9 nM.

From patent US20180251431A1 (VERTEX PHARMACEUTICALS INCORPORATED, priority 2016, published 2018)
